From PMC3756485 (The Biochemical journal, 2012)

Assays:
PfENT4 [1] = target: T1, PfENT4 (Plasmodium falciparum, UniProt Q8I2A8); assay type: cell-based; details: 60 min; for Uptake of radiolabeled substrate relative to H2O-injected oocytes: 1.5 μM radiolabeled compound; for Saturability of concentration-dependent uptake (Michaelis-Menten): concentrations up to 10 mM
PvENT4 [2] = target: T2, PvENT4 (Plasmodium vivax, UniProt A5K9X9); assay type: cell-based; details: 60 min; for Uptake of radiolabeled substrate relative to H2O-injected oocytes: 1.5 μM radiolabeled compound; for Saturability of concentration-dependent uptake (Michaelis-Menten): concentrations up to 10 mM
PfENT1 = details: cited from earlier work
PfENT4 [3] = target: T1, PfENT4; test: cell-based
PvENT4 [4] = target: T2, PvENT4; test: cell-based
[5] = system: P. falciparum phosphodiesterase-1; details: cited from earlier work
P. falciparum parasites = details: read-out: IC50, in vitro growth; P. falciparum FCR-3 strain parasites; cited from earlier work
[6] = read-out: Inhibition of adenine uptake

## Nc1ncnc2c1ncn2[C@H]1C[C@H](O)[C@@H](CO)O1 [2′-deoxyadenosine]
PfENT4 [1]
  Uptake of radiolabeled substrate relative to H2O-injected oocytes: greater uptake
PvENT4 [2]
  Uptake of radiolabeled substrate relative to H2O-injected oocytes: greater uptake

## Nc1nc2c(ncn2[C@H]2C[C@H](O)[C@@H](CO)O2)c(=O)[nH]1 [2′-deoxyguanosine]
PfENT4 [1]
  Uptake of radiolabeled substrate relative to H2O-injected oocytes: greater uptake
PvENT4 [2]
  Uptake of radiolabeled substrate relative to H2O-injected oocytes: greater uptake

## Nc1ncnc2c1ncn2[C@@H]1O[C@H](COP(=O)(O)O)[C@@H](O)[C@H]1O [AMP, adenosine monophosphate]
PfENT4 [1]; PfENT4 oocytes, 1.5 μM, in presence of 250 μM α,β-methyleneADP
  Transport of radiolabeled substrate: not observed
PvENT4 [2]; PvENT4 oocytes, 1.5 μM, in presence of 250 μM α,β-methyleneADP
  Transport of radiolabeled substrate: not observed
PfENT1
  Substrate of PfENT1: not substrates

## O=c1[nH]cnc2c([C@@H]3N[C@H](CO)[C@@H](O)[C@H]3O)c[nH]c12 [Immucillin-H]
PfENT4 [3]; PfENT4 oocytes, 150 nM [3H]adenine, 60 min
  Inhibition of [3H]adenine uptake at 7 mM compared with 2 mM: significantly greater inhibition

## O=[N+]([O-])c1ccc(CSc2ncnc3c2ncn3[C@@H]2O[C@H](CO)[C@@H](O)[C@H]2O)cc1 [NBMPR, nitrobenzylmercaptopurineriboside]
PfENT4 [3]; PfENT4 oocytes, 150 nM [3H]adenine, 60 min, compound 10 μM
  Inhibition of adenine uptake: insensitive
PvENT4 [4]; PvENT4 oocytes, 150 nM [3H]adenine, 60 min, compound 10 μM
  Inhibition of adenine uptake: insensitive

## Nc1ncnc2[nH]cnc12 [adenine]
PfENT4 [3]
  Ki: 7 ± 2 µM
PvENT4 [4]
  Ki: 6 ± 2 µM
PfENT4 [1]
  Uptake of radiolabeled substrate relative to H2O-injected oocytes: greater uptake
PfENT4 [1]; PfENT4 oocytes
  Saturability of concentration-dependent uptake (Michaelis-Menten): not saturable
PvENT4 [2]
  Uptake of radiolabeled substrate relative to H2O-injected oocytes: greater uptake
PvENT4 [2]; PvENT4 oocytes
  Saturability of concentration-dependent uptake (Michaelis-Menten): not saturable

## Nc1ncnc2c1ncn2[C@@H]1O[C@H](CO)[C@@H](O)[C@H]1O [adenosine]
PfENT4 [1]
  Uptake of radiolabeled substrate relative to H2O-injected oocytes: greater uptake
PfENT4 [1]; PfENT4 oocytes
  Saturability of concentration-dependent uptake (Michaelis-Menten): not saturable
PvENT4 [2]
  Uptake of radiolabeled substrate relative to H2O-injected oocytes: greater uptake
PvENT4 [2]; PvENT4 oocytes
  Saturability of concentration-dependent uptake (Michaelis-Menten): not saturable

## OCCN(CCO)c1nc(N2CCCCC2)c2nc(N(CCO)CCO)nc(N3CCCCC3)c2n1 [dipyridamole]
PfENT4 [3]; [6]
  inhibition at 10 µM: ~80%
PvENT4 [4]; [6]
  inhibition at 10 µM: ~80%
PfENT1
  Sensitivity of PfENT1 to inhibitor: insensitive
[5]
  Inhibition of recombinant P. falciparum phosphodiesterase-1: inhibits

## O=c1[nH]cnc2nc[nH]c12 [hypoxanthine]
PfENT4 [3]; PfENT4 oocytes, 150 nM [3H]adenine, 60 min, concentration shown only in Figure 9
  Inhibition of adenine uptake: did not inhibit
PvENT4 [4]; PvENT4 oocytes, 150 nM [3H]adenine, 60 min, concentration shown only in Figure 9
  Inhibition of adenine uptake: did not inhibit
PfENT4 [1]
  Uptake of radiolabeled substrate relative to H2O-injected oocytes: no observed uptake
PvENT4 [2]
  Uptake of radiolabeled substrate relative to H2O-injected oocytes: no observed uptake

## O=c1[nH]cnc2c1ncn2[C@@H]1O[C@H](CO)[C@@H](O)[C@H]1O [inosine]
PfENT4 [1]
  Uptake of radiolabeled substrate relative to H2O-injected oocytes: greater uptake
PvENT4 [2]
  Uptake of radiolabeled substrate relative to H2O-injected oocytes: greater uptake

## CC(C)=CCNc1ncnc2nc[nH]c12 [isopentenyl adenine]
P. falciparum parasites
  IC50: 8.34 µM

## Cc1cn([C@H]2C[C@H](O)[C@@H](CO)O2)c(=O)[nH]c1=O [thymidine]
PfENT4 [1]
  Uptake of radiolabeled substrate relative to H2O-injected oocytes: displayed uptake
PvENT4 [2]
  Uptake of radiolabeled substrate relative to H2O-injected oocytes: displayed uptake

## Cc1c[nH]c(=O)[nH]c1=O [thymine]
PvENT4 [2]
  Uptake of radiolabeled substrate relative to H2O-injected oocytes: less accumulation

## C/C(=C\CNc1ncnc2[nH]cnc12)CO [trans-zeatin]
PfENT4 [3]
  Ki: 20 ± 3 µM
PvENT4 [4]
  Ki: 193 ± 21 µM

## O=c1cc[nH]c(=O)[nH]1 [uracil]
PvENT4 [2]
  Uptake of radiolabeled substrate relative to H2O-injected oocytes: less accumulation

## O=c1[nH]c(=O)c2[nH]c(=O)[nH]c2[nH]1 [urate]
PfENT4 [3]; PfENT4 oocytes, 150 nM [3H]adenine, 60 min, compound 500 μM
  Competition for adenine transport: did not compete
PvENT4 [4]; PvENT4 oocytes, 150 nM [3H]adenine, 60 min, compound 500 μM
  Competition for adenine transport: did not compete
